This note sets out measurements from patent US6933150B1, “Relationship of ABC transport proteins with hematopoietic stem cells and methods of use thereof” (priority 1998, dated 2005).

Experiment [1] relates to ABC transporter. Put plainly: SP cell analysis of mdr1a/1b knockout bone marrow cells treated with ABC transporter inhibitors. Particulars: treatment before and during Hoechst 33342 staining.
Procedure: Hoechst 33342 SP cell assay: Murine bone marrow cells were collected and resuspended at 1×10^6 cells/ml in DMEM plus 10 mM HEPES and 2%, FBS. In a water bath, the cells were allowed to equilibrate at 37° C., followed by addition of 5 μg/ml Hoechst 33342 (Fisher Scientific, Pittsburgh, Pa.) for 90 minutes as previously described [Goodell et al., J. Exp. Med., 183:1797-1806 (1996)]. Cells were then centrifuged at 4° C. and resuspended in ice cold HBSS plus 10 mM HEPES and 2% FBS at 1×10^7 cells/ml. For flow cytometric analysis or sorting, a Becton Dickinson FACS Vantage flow cytometer (Becton Dickinson, San Jose, Calif.) was configured for dual emission wavelength analysis as previously described [Goodell et al., J. Exp. Med., 183:1797-1806 (1996)]. Cells were gated based on forward and side light scatter to exclude debris. […] Cells were analyzed at approximately 5,000 cells/second until data from 1×10^6 cells were collected. The SP cell gate was defined based on normal fresh C57BL/6 bone marrow cells.
Cells were treated with either verapamil or 2-deoxyglucose. Verapamil is a competitive inhibitor of several known ABC transporters including MDR1, whereas 2-deoxyglucose is an inhibitor of ATP synthesis that depletes cellular ATP levels required for ABC transporter function.
Experiment [2] concerns myeloid progenitors. Put plainly: Drug-resistant myeloid progenitor (CFU-C) assay in methylcellulose. As to conditions: 25 to 50 nM, thymidine phosphorylase-treated methylcellulose. The format is cell-based, mouse.
Procedure: Ex vivo culture and expansion of myeloid progenitors: Following transduction (day 0), cells were cultured in the presence of the growth factor combination described above. Cells were resuspended at 1×10^6 cells/ml every 3-6 days for at least 12 days of expansion. Aliquots of cells were removed for CFU-C analysis at various time points.
Retroviral-mediated gene transfer into murine hematopoietic stem cells: BM cells were harvested from C57BL/6 or B6.Ch-1/By (referred to as “HW80”) congenic mouse strains (Jackson Laboratories, Bar Harbor, Me. ) by standard methods. Following isolation, cells were placed into liquid suspension culture in Dulbecco's Modified Eagle's Medium (DMEM) (BioWhittaker, Walkersville, Md.) with 1% penicillin/streptomycin (Gibco/BRL, Grand Island, N.Y.), 15% fetal bovine serum (FBS; Hyclone, Logan Utah), 20 ng/ml murine interleukin (IL)-3®& D Systems, Minneapolis, Minn.), 50 ng/ml human IL-6 (Amgen, Thousand Oaks, Calif.), and 50 ng/ml murine stem cell factor ® & D Systems). The cells were initially plated at 1×10^6 cells/ml in 10 mls of medium. Following pre-stimulation for 48 hours, cells were replated onto confluent monolayers of irradiated ecotropic producer cell lines. The bone marrow cells were plated at the same density used in the pre-stimulation phase and in the same medium with 6 μg/ml polybrene added. […]

As to `COc1ccc(CCN(C)CCCC(C#N)(c2ccc(OC)c(OC)c2)C(C)C)cc1OC` (stereo not drawn) [verapamil], the “Effect on SP cell phenotype” value in experiment [1] is on record as “eliminated phenotypically identifiable SP cells”.

In the case of `COc1cc(NCc2ccc3nc(N)nc(N)c3c2C)cc(OC)c1OC` [trimetrexate], the “Killing of non-transduced background cells” value in experiment [2] was “completely killed”. With `O=CC[C@@H](O)[C@H](O)[C@H](O)CO` [2-deoxyglucose], in experiment [1], the “Effect on SP cell phenotype” value is recorded as “eliminated phenotypically identifiable SP cells”.
